Laboratory results published in PubChem BioAssay (NCI).
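A five-concentration, 48-hour dose response in 96-well plates underlies each endpoint, interpolated linearly between surrounding concentrations. At the TGI there is no net growth.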

Columns and labels:
Assay in all cases: inhibition of tumour cell growth, NCI panel, 48 h
[1] = system: 786-0 renal
[2] = system: A498 renal
[3] = system: A549 NSCLC
[4] = system: ACHN renal
[5] = system: CAKI-1 renal
[6] = system: CCRF-CEM leukemia
[7] = system: COLO 205 colon
[8] = system: DU-145 prostate
[9] = system: EKVX NSCLC
[10] = system: HCC-2998 colon
[11] = system: HCT-116 colon
[12] = system: HCT-15 colon
[13] = system: HL-60(TB) leukemia
[14] = system: HOP-62 NSCLC
[15] = system: HOP-92 NSCLC
[16] = system: HS 578T breast
[17] = system: HT29 colon
[18] = system: IGROV1 ovarian
[19] = system: K-562 leukemia
[20] = system: KM12 colon
[21] = system: LOX IMVI melanoma
[22] = system: M14 melanoma
[23] = system: MALME-3M melanoma
[24] = system: MCF7 breast
[25] = system: MDA-MB-231 breast
[26] = system: MDA-MB-435
[27] = system: MDA-N
[28] = system: MOLT-4 leukemia
[29] = system: NCI-H226 lung
[30] = system: NCI-H23 lung
[31] = system: NCI-H460 lung
[32] = system: NCI-H522 lung
[33] = system: NCI/ADR-RES ovarian
[34] = system: OVCAR-3 ovarian
[35] = system: OVCAR-4 ovarian
[36] = system: OVCAR-5 ovarian
[37] = system: OVCAR-8 ovarian
[38] = system: PC-3 prostate
[39] = system: RPMI-8226 leukemia
[40] = system: RXF 393 renal
[41] = system: SF-268 CNS
[42] = system: SF-295 CNS
[43] = system: SF-539 CNS
[44] = system: SK-MEL-2 melanoma
[45] = system: SK-MEL-28 melanoma
[46] = system: SK-MEL-5 melanoma
[47] = system: SK-OV-3 ovarian
[48] = system: SN12C renal
[49] = system: SNB-19 CNS
[50] = system: SNB-75 CNS
[51] = system: SR leukemia
[52] = system: SW-620 colon
[53] = system: T-47D breast
[54] = system: TK-10 renal
[55] = system: U251 CNS
[56] = system: UACC-257 melanoma
[57] = system: UACC-62 melanoma
[58] = system: UO-31 renal

Measured: TGI

c1cc(C2=NCCO2)c2ccsc2c1
49.8 µM: [16]
99.1 µM: [50]
> 100 µM: all other assays above

COc1ccc(/C=C2/SC(=Nc3ccccc3)N(NC(=O)Cc3ccccc3)C2=O)c(OC)c1
67.4 µM: [15]
not listed: [5] | [13] | [21] | [23] | [32] | [38] | [51]
> 100 µM: all other assays above
